# Measurements reported in ChEMBL document CHEMBL4011590, “Structure-activity relationship studies on 3,5-dinitrophenyl tetrazoles as antitubercular agents” (Eur J Med Chem, 2017).
# Assays:
# [1] = tested on: Klebsiella pneumoniae; assay: Antibacterial activity against Klebsiella pneumoniae HK11750/08 after 48 hrs by broth microdilution method; format: functional; settings: HK11750/08, 48 h
# [2] = tested on: Trichophyton mentagrophytes; assay: Antifungal activity against Trichophyton mentagrophytes 445 after 72 hrs by broth microdilution method; format: functional; settings: Trichophyton mentagrophytes, 445, 72 h
# [3] = tested on: Enterococcus sp.; assay: Antibacterial activity against Enterococcus sp. HK14365/08 after 48 hrs by broth microdilution method; format: functional; settings: HK14365/08, 48 h
# [4] = tested on: Escherichia coli; assay: Antibacterial activity against Escherichia coli ATCC 8739 after 24 hrs by broth microdilution method; format: functional; settings: ATCC 8739, 24 h
# [5] = tested on: Klebsiella pneumoniae; assay: Antibacterial activity against extended spectrum beta-lactamase producing Klebsiella pneumoniae HK14368/08 after 24 hrs by broth microdilution method; format: functional; settings: HK14368/08, 24 h
# [6] = tested on: Aspergillus fumigatus; assay: Antifungal activity against Aspergillus fumigatus 231 after 24 hrs by broth microdilution method; format: functional; settings: Aspergillus fumigatus, 231, 24 h
# [7] = tested on: Lichtheimia corymbifera; assay: Antifungal activity against Absidia corymbifera 272 after 48 hrs by broth microdilution method; format: functional; settings: Lichtheimia corymbifera, 272, 48 h
# [8] = tested on: Mycobacterium avium; assay: Antimycobacterial activity against Mycobacterium avium CNCTC My 330/80 after 14 days by micromethod; format: functional; settings: CNCTC My 330/80, 336 h
# [9] = tested on: Mycobacterium avium; assay: Antimycobacterial activity against Mycobacterium avium CNCTC My 330/80 after 21 days by micromethod; format: functional; settings: CNCTC My 330/80, 504 h
# [10] = tested on: Staphylococcus aureus; assay: Antibacterial activity against methicillin-resistant Staphylococcus aureus HK5996/08 after 48 hrs by broth microdilution method; format: functional; settings: HK5996/08, 48 h
# [11] = tested on: Klebsiella pneumoniae; assay: Antibacterial activity against Klebsiella pneumoniae HK11750/08 after 24 hrs by broth microdilution method; format: functional; settings: HK11750/08, 24 h
# [12] = tested on: Mycobacterium kansasii; assay: Antimycobacterial activity against Mycobacterium kansasii isolate 6509/96 after 21 days by micromethod; format: functional; settings: isolate 6509/96, 504 h
# [13] = tested on: Klebsiella pneumoniae; assay: Antibacterial activity against extended spectrum beta-lactamase producing Klebsiella pneumoniae HK14368/08 after 48 hrs by broth microdilution method; format: functional; settings: HK14368/08, 48 h
# [14] = tested on: Nakaseomyces glabratus; assay: Antifungal activity against Candida glabrata 20/I after 48 hrs by broth microdilution method; format: functional
# [15] = tested on: Pichia kudriavzevii; assay: Antifungal activity against Candida krusei E28 after 48 hrs by broth microdilution method; format: functional; settings: E28, 48 h
# [16] = tested on: Candida tropicalis; assay: Antifungal activity against Candida tropicalis 156 after 24 hrs by broth microdilution method; format: functional; settings: Candida tropicalis, 156, 24 h
# [17] = tested on: Candida tropicalis; assay: Antifungal activity against Candida tropicalis 156 after 48 hrs by broth microdilution method; format: functional; settings: Candida tropicalis, 156, 48 h
# [18] = tested on: Escherichia coli; assay: Antibacterial activity against Escherichia coli ATCC 8739 after 48 hrs by broth microdilution method; format: functional; settings: ATCC 8739, 48 h
# [19] = tested on: CHO-K1; assay: Cytotoxicity against CHOK1 cells after 24 hrs by MTT assay; format: cell-based; settings: Cricetulus griseus, CHO-K1, 24 h
# [20] = tested on: Staphylococcus epidermidis; assay: Antibacterial activity against Staphylococcus epidermidis HK6966/08 after 24 hrs by broth microdilution method; format: functional; settings: HK6966/08, 24 h
# [21] = tested on: Trichosporon asahii; assay: Antifungal activity against Trichosporon asahii 1188 after 24 hrs by broth microdilution method; format: functional; settings: Trichosporon asahii, 1188, 24 h
# [22] = tested on: Trichophyton mentagrophytes; assay: Antifungal activity against Trichophyton mentagrophytes 445 after 120 hrs by broth microdilution method; format: functional; settings: Trichophyton mentagrophytes, 445, 120 h
# [23] = tested on: Trichosporon asahii; assay: Antifungal activity against Trichosporon asahii 1188 after 48 hrs by broth microdilution method; format: functional; settings: Trichosporon asahii, 1188, 48 h
# [24] = tested on: Pseudomonas aeruginosa; assay: Antibacterial activity against Pseudomonas aeruginosa ATCC 9027 after 24 hrs by broth microdilution method; format: functional; settings: ATCC 9027, 24 h
# [25] = tested on: Enterococcus sp.; assay: Antibacterial activity against Enterococcus sp. HK14365/08 after 24 hrs by broth microdilution method; format: functional; settings: HK14365/08, 24 h
# [26] = tested on: Mycobacterium kansasii; assay: Antimycobacterial activity against Mycobacterium kansasii isolate 6509/96 after 7 days by micromethod; format: functional; settings: isolate 6509/96, 168 h
# [27] = tested on: Candida albicans; assay: Antifungal activity against Candida albicans ATCC 44859 after 24 hrs by broth microdilution method; format: functional; settings: ATCC 44859, 24 h
# [28] = tested on: Mycobacterium kansasii; assay: Antimycobacterial activity against Mycobacterium kansasii CNCTC My 235/80 after 21 days by micromethod; format: functional; settings: CNCTC My 235/80, 504 h
# [29] = tested on: Staphylococcus aureus; assay: Antibacterial activity against methicillin-resistant Staphylococcus aureus HK5996/08 after 24 hrs by broth microdilution method; format: functional; settings: HK5996/08, 24 h
# [30] = tested on: Nakaseomyces glabratus; assay: Antifungal activity against Candida glabrata 20/I after 24 hrs by broth microdilution method; format: functional
# [31] = tested on: Candida albicans; assay: Antifungal activity against Candida albicans ATCC 44859 after 48 hrs by broth microdilution method; format: functional; settings: ATCC 44859, 48 h
# [32] = tested on: Staphylococcus aureus; assay: Antibacterial activity against Staphylococcus aureus ATCC 6538 after 24 hrs by broth microdilution method; format: functional; settings: ATCC 6538, 24 h
# [33] = tested on: Mycobacterium kansasii; assay: Antimycobacterial activity against Mycobacterium kansasii CNCTC My 235/80 after 14 days by micromethod; format: functional; settings: CNCTC My 235/80, 336 h
# [34] = tested on: Staphylococcus epidermidis; assay: Antibacterial activity against Staphylococcus epidermidis HK6966/08 after 48 hrs by broth microdilution method; format: functional; settings: HK6966/08, 48 h
# [35] = tested on: Mycobacterium tuberculosis; assay: Antimycobacterial activity against Mycobacterium tuberculosis H37Rv CNCTC My 331/88 after 14 days by micromethod; format: functional; settings: H37Rv CNCTC My 331/88, 336 h
# [36] = tested on: Staphylococcus aureus; assay: Antibacterial activity against Staphylococcus aureus ATCC 6538 after 48 hrs by broth microdilution method; format: functional; settings: ATCC 6538, 48 h
# [37] = tested on: Mycobacterium tuberculosis; assay: Antimycobacterial activity against Mycobacterium tuberculosis H37Rv CNCTC My 331/88 after 21 days by micromethod; format: functional; settings: H37Rv CNCTC My 331/88, 504 h
# [38] = tested on: Aspergillus fumigatus; assay: Antifungal activity against Aspergillus fumigatus 231 after 48 hrs by broth microdilution method; format: functional; settings: Aspergillus fumigatus, 231, 48 h
# [39] = tested on: Pseudomonas aeruginosa; assay: Antibacterial activity against Pseudomonas aeruginosa ATCC 9027 after 48 hrs by broth microdilution method; format: functional; settings: ATCC 9027, 48 h
# [40] = tested on: Mycobacterium kansasii; assay: Antimycobacterial activity against Mycobacterium kansasii isolate 6509/96 after 14 days by micromethod; format: functional; settings: isolate 6509/96, 336 h
# [41] = tested on: Mycobacterium kansasii; assay: Antimycobacterial activity against Mycobacterium kansasii CNCTC My 235/80 after 7 days by micromethod; format: functional; settings: CNCTC My 235/80, 168 h
# [42] = tested on: Pichia kudriavzevii; assay: Antifungal activity against Candida krusei E28 after 24 hrs by broth microdilution method; format: functional; settings: E28, 24 h
# [43] = tested on: Lichtheimia corymbifera; assay: Antifungal activity against Absidia corymbifera 272 after 24 hrs by broth microdilution method; format: functional; settings: Lichtheimia corymbifera, 272, 24 h
compound,measurement,setting,value
Cc1ccc(Cn2nnnc2-c2cc([N+](=O)[O-])cc([N+](=O)[O-])c2)cc1,MIC,[1],500 µM
same,MIC,[2],> 500 µM
same,MIC,[3],250 µM
same,MIC,[4],500 µM
same,MIC,[5],500 µM
same,MIC,[6],> 500 µM
same,MIC,[7],> 500 µM
same,MIC99,[8],8 µM
same,MIC99,[9],16 µM
same,MIC,[10],125 µM
same,MIC,[11],500 µM
same,MIC99,[12],4 µM
same,MIC,[13],500 µM
same,MIC,[14],> 500 µM
same,MIC,[15],> 500 µM
same,MIC,[16],> 500 µM
same,MIC,[17],> 500 µM
same,MIC,[18],500 µM
same,IC50,[19],28 µM
same,MIC,[20],250 µM
same,MIC,[21],> 500 µM
same,MIC,[22],> 500 µM
same,MIC,[23],> 500 µM
same,MIC,[24],> 500 µM
same,MIC,[25],250 µM
same,MIC99,[26],2 µM
same,MIC,[27],> 500 µM
same,MIC99,[28],4 µM
same,MIC,[29],125 µM
same,MIC,[30],> 500 µM
same,MIC,[31],> 500 µM
same,MIC,[32],125 µM
same,MIC99,[33],2 µM
same,MIC,[34],250 µM
same,MIC99,[35],1 µM
same,MIC,[36],125 µM
same,MIC99,[37],2 µM
same,MIC,[38],> 500 µM
same,MIC,[39],> 500 µM
same,MIC99,[40],4 µM
same,MIC99,[41],1 µM
same,MIC,[42],> 500 µM
same,MIC,[43],> 500 µM
COc1cccc(-n2nnnc2SCn2nnc(-c3cc([N+](=O)[O-])cc([N+](=O)[O-])c3)n2)c1,MIC,[1],> 125 µM
same,MIC,[2],> 500 µM
same,MIC,[3],> 125 µM
same,MIC,[4],> 125 µM
same,MIC,[5],> 125 µM
same,MIC,[6],> 500 µM
same,MIC,[7],> 500 µM
same,MIC99,[8],8 µM
same,MIC99,[9],16 µM
same,MIC,[10],> 125 µM
same,MIC,[11],> 125 µM
same,MIC99,[12],1 µM
same,MIC,[13],> 125 µM
same,MIC,[14],> 500 µM
same,MIC,[15],> 500 µM
same,MIC,[16],> 500 µM
same,MIC,[17],> 500 µM
same,MIC,[18],> 125 µM
same,IC50,[19],135 µM
same,MIC,[20],> 125 µM
same,MIC,[21],> 500 µM
same,MIC,[22],> 500 µM
same,MIC,[23],> 500 µM
same,MIC,[24],> 125 µM
same,MIC,[25],> 125 µM
same,MIC99,[26],0.5 µM
same,MIC,[27],> 500 µM
same,MIC99,[28],2 µM
same,MIC,[29],> 125 µM
same,MIC,[30],> 500 µM
same,MIC,[31],> 500 µM
same,MIC,[32],> 125 µM
same,MIC99,[33],1 µM
same,MIC,[34],> 125 µM
same,MIC99,[35],0.03 µM
same,MIC,[36],> 125 µM
same,MIC99,[37],0.03 µM
same,MIC,[38],> 500 µM
same,MIC,[39],> 125 µM
same,MIC99,[40],1 µM
same,MIC99,[41],1 µM
same,MIC,[42],> 500 µM
same,MIC,[43],> 500 µM
